Laboratory results taken from article PMC5104943, “Structural and Functional Characterization of a Ruminal β-Glycosidase Defines a Novel Subfamily of Glycoside Hydrolase Family 3 with Permuted Domain Topology” (The Journal of Biological Chemistry, 2016).

Molecular target: T1, GlyA1-ΔCt (rumen metagenome, UniProt Z9J456A3C9)
T1 sequence (Z9J456A3C9 2-799): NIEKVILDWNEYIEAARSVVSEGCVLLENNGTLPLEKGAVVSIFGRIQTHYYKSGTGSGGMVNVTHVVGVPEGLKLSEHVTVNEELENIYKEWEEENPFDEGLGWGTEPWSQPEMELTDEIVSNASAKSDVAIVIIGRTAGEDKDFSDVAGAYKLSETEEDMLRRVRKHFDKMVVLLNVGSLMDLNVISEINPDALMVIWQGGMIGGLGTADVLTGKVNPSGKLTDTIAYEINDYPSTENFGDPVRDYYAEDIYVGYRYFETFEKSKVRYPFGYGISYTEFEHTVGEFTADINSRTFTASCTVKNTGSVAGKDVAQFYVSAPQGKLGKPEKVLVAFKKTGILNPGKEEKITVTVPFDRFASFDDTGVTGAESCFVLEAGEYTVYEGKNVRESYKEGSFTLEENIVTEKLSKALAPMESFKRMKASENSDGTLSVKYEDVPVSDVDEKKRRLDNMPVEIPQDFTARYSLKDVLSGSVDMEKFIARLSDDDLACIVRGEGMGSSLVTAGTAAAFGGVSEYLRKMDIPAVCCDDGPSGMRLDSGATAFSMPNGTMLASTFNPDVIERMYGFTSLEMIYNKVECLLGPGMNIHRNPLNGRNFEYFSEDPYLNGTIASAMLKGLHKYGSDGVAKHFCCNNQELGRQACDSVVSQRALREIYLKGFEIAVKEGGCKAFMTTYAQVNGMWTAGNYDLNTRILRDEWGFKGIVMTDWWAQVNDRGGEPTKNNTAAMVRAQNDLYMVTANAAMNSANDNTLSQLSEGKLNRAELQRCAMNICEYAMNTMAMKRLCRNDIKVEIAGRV
Assay: X-ray crystallography, […] Å, soak […]
Type: binding
Settings: active site subsite -1, semi-chair conformation; 2.0 M ammonium sulfate, pH 5.5

SMILES: OC[C@H]1OC(O)[C@H](O)[C@@H](O)[C@H]1O (stereo partly drawn) [D-galactose]
- X-ray crystallography, 2.29 Å, soak 5-50 mM: soaking of crystals with galactose showed that this sugar displays a semi-chair conformation
